Assay results reported in ChEMBL document CHEMBL4385630, “The synthesis and evaluation of quinolinequinones as anti-mycobacterial agents” (2019).
In brackets after ≈: the same amount, converted by molar mass. Activity calls are given as the source filed them. The calls are words filed in the database; no cut-off is given here.

Legend:
[1] = Electrochemical behavior of the compound in acetonitrile assessed as redox potential E1 at 1 mM using Ag/Ag+ electrode by cyclic voltammetry
[2] = tested on: Mycobacterium tuberculosis; assay: Antimycobacterial activity against Mycobacterium tuberculosis MC2 6230 assessed as reduction in cell viability incubated for 5 days by resazurin based method; format: functional; details: MC2 6230, 120 h
[3] = Electrochemical behavior of the compound in acetonitrile assessed as redox potential E2 at 1 mM using Ag/Ag+ electrode by cyclic voltammetry
[4] = Electrochemical behavior of the compound in acetonitrile/tolunene assessed as redox potential E2 at 1 mM using Ag/Ag+ electrode by cyclic voltammetry
[5] = Electrochemical behavior of the compound in acetonitrile/tolunene assessed as redox potential E1 at 1 mM using Ag/Ag+ electrode by cyclic voltammetry
[6] = tested on: Mycobacterium tuberculosis; assay: Antimycobacterial activity against Mycobacterium tuberculosis H37Rv incubated fro 96 hrs; format: functional
[7] = tested on: Mycobacterium tuberculosis; assay: Antimycobacterial activity against Mycobacterium tuberculosis incubated for 7 days by resazurin dye based assay; format: functional; details: 168 h
[8] = tested on: Mycolicibacterium smegmatis MC2 155; assay: Activation of NDH-2 in Mycobacterium smegmatis MC2 155 inverted membrane vesicles assessed as increase in oxygen consumption rate in presence of NADH by fluorespirometry

Row | Compound | Activity [1] | MIC [2] | Activity [3] | Activity [4] | Activity [5] | MIC [6] | MIC [7] | Activity [8]
1 | O=C1C(Nc2ccccc2)=C(Cl)C(=O)c2ncccc21 | -0.46 V | > 512 µM | -1.06 V |  |  |  |  | 
2 | C#CCNC1=C(Cl)C(=O)c2cccnc2C1=O | -0.49 V | 128 µM (≈ 31.6 µg/mL) | -1.07 V |  |  |  |  | 
3 | CCCCCCCCCCCCCCc1ccc(NC2=C(Cl)C(=O)c3cccnc3C2=O)cc1 |  | > 512 µM |  | -1 V | -0.44 V |  |  | 
4 | CCCCCCCCNC1=C(Cl)C(=O)c2ncccc2C1=O | -0.67 V | 16 µM (≈ 5.13 µg/mL) | -1.26 V |  |  |  |  | 
5 | O=C1C(NC2CCCCCCC2)=CC(=O)c2ncccc21 |  |  |  |  |  | 3.5 µM (≈ 0.995 µg/mL) |  | 
6 | Cc1ccc2c(n1)C(=O)C(Cl)=C(N1CCCCC1)C2=O | -0.57 V | 128 µM (≈ 37.2 µg/mL) | -1.13 V |  |  |  |  | 
7 | O=C1C(NCCCl)=C(Cl)C(=O)c2ncccc21 |  |  |  |  |  |  | 8 µM (≈ 2.17 µg/mL) | 
8 | C#CCNC1=C(Cl)C(=O)c2ccc(C)nc2C1=O | -0.51 V | 256 µM (≈ 66.7 µg/mL) | -1.1 V |  |  |  |  | 
9 | Cc1ccc2c(n1)C(=O)C(Cl)=C(Nc1ccccc1)C2=O | -0.47 V | 512 µM (≈ 153 µg/mL) | -1.05 V |  |  |  |  | 
10 | COc1ccc(CNC2=C(Cl)C(=O)c3ccc(C)nc3C2=O)cc1 | -0.52 V | 16 µM (≈ 5.48 µg/mL) | -1.1 V |  |  |  |  | 
11 | Cc1ccc2c(n1)C(=O)C(NCCc1ccccc1)=C(Cl)C2=O | -0.7 V | 16 µM (≈ 5.23 µg/mL) | -1.3 V |  |  |  |  | 
12 | CCCCCCCCNC1=C(Cl)C(=O)c2cccnc2C1=O | -0.68 V | 64 µM (≈ 20.5 µg/mL) | -1.27 V |  |  |  |  | 
13 | Cc1ccc2c(n1)C(=O)C(N1CCCCC1)=C(Cl)C2=O | -0.61 V | 256 µM (≈ 74.4 µg/mL) | -1.17 V |  |  |  |  | 
14 | O=C1C(Cl)=C(Nc2ccccc2)C(=O)c2ncccc21 | -0.42 V | 512 µM (≈ 146 µg/mL) | -1 V |  |  |  |  | 
15 | CCCCCCCCNC1=C(Cl)C(=O)c2nc(C)ccc2C1=O | -0.72 V | 128 µM (≈ 42.9 µg/mL) | -1.27 V |  |  |  |  | 
16 | CCCNC1=C(Cl)C(=O)c2cccnc2C1=O | -0.59 V | 128 µM (≈ 32.1 µg/mL) | -1.16 V |  |  |  |  | 
17 | Cc1ccc2c(n1)C(=O)C(Cl)=C(NC(C)(C)C)C2=O | -0.69 V | 256 µM (≈ 71.4 µg/mL) | -1.25 V |  |  |  |  | 
18 | COc1ccc(CNC2=C(Cl)C(=O)c3cccnc3C2=O)cc1 | -0.63 V | 16 µM (≈ 5.26 µg/mL) | -1.24 V |  |  |  |  | 

Row | Compound | Activity [1] | MIC [2] | Activity [3] | Activity [4] | Activity [5] | MIC [6] | MIC [7] | Activity [8]
19 | CCCNC1=C(Cl)C(=O)c2ccc(C)nc2C1=O | -0.56 V | 128 µM (≈ 33.9 µg/mL) | -0.97 V |  |  |  |  | 
20 | CC1=CC(=O)c2ccccc2C1=O | -0.7 V |  | -1.27 V |  |  |  |  | 
21 | Cc1ccc2c(n1)C(=O)C(Nc1ccccc1)=C(Cl)C2=O | -0.44 V | 256 µM (≈ 76.5 µg/mL) | -0.9 V |  |  |  |  | 
22 | O=C1C(NCCc2ccccc2)=C(Cl)C(=O)c2ncccc21 | -0.6 V | 128 µM (≈ 40 µg/mL) | -1.15 V |  |  |  |  | 
23 | C#CCNC1=C(Cl)C(=O)c2nc(C)ccc2C1=O | -0.55 V | 64 µM (≈ 16.7 µg/mL) | -1.05 V |  |  |  |  | 
24 | CCCCCCCc1ccc(NC2=C(Cl)C(=O)c3ncccc3C2=O)cc1 | -0.58 V | 64 µM (≈ 24.5 µg/mL) | -1.15 V |  |  |  |  | 
25 | COc1ccc(CNC2=C(Cl)C(=O)c3ncccc3C2=O)cc1 | -0.61 V | 32 µM (≈ 10.5 µg/mL) | -1.18 V |  |  |  |  | 
26 | O=C1C(Cl)=C(NCCc2ccccc2)C(=O)c2ncccc21 | -0.64 V | 16 µM (≈ 5 µg/mL) | -1.21 V |  |  |  |  | 
27 | CCCCCCCc1ccc(NC2=C(Cl)C(=O)c3cccnc3C2=O)cc1 | -0.57 V | 32 µM (≈ 12.3 µg/mL) | -1.08 V |  |  |  |  | 
28 | CCCCCCCCCCCCCCc1ccc(NC2=C(Cl)C(=O)c3ncccc3C2=O)cc1 |  | > 512 µM |  | -1.1 V | -0.78 V |  |  | 
29 | Cc1ccc2c(n1)C(=O)C(Cl)=C(N(C)C)C2=O | -0.62 V | 512 µM (≈ 128 µg/mL) | -1.11 V |  |  |  |  | 
30 | Cc1ccc2c(n1)C(=O)C(Cl)=C(NCCc1ccccc1)C2=O | -0.73 V | 128 µM (≈ 41.8 µg/mL) | -1.3 V |  |  |  |  | 
31 | C#CCNC1=C(Cl)C(=O)c2ncccc2C1=O | -0.5 V | 8 µM (≈ 1.97 µg/mL) | -1.1 V |  |  |  |  | Active
32 | Cc1ccc2c(n1)C(=O)C(NC(C)(C)C)=C(Cl)C2=O | -0.59 V | > 512 µM | -1.1 V |  |  |  |  | 
33 | CCCNC1=C(Cl)C(=O)c2nc(C)ccc2C1=O | -0.6 V | 512 µM (≈ 136 µg/mL) | -1.17 V |  |  |  |  | 
34 | Cc1ccc2c(n1)C(=O)C(N(C)C)=C(Cl)C2=O | -0.6 V | > 512 µM | -1.13 V |  |  |  |  | 
35 | CCCNC1=C(Cl)C(=O)c2ncccc2C1=O | -0.6 V | 128 µM (≈ 32.1 µg/mL) | -1.16 V |  |  |  |  | 
36 | NNC(=O)c1ccncc1 [ISONIAZID] |  | 0.2 µM (≈ 0.0274 µg/mL) |  |  |  |  |  | 
